Source: the NIST ThermoML archive (doi:10.1021/je700710d)
Numbers after ± are expanded uncertainties.

Conditions: 298.15 K, 101.33 kPa, Liquid; for viscosity: Capillary tube (Ostwald / Ubbelohde) method

| SMILES | viscosity | mass density (Vibrating tube method) | mass density |
| --- | --- | --- | --- |
| CCOS(=O)(=O)[O-].CCn1cc[n+](C)c1 [1-ethyl-3-methylimidazolium ethyl sulfate] | 97.58 ± 4 mPa·s | 1237.63 ± 8.3 kg/m3 | – |
| CCO [ethanol] | 1.082 ± 0.009 mPa·s | – | 785.46 ± 0.47 kg/m3 |
